# Experimental data taken from patent publication US5593970A, “Heterocyclic anthracycline analogs” (priority 1994, dated 1997).
# Where a name gives a salt, the structure may show the parent alone. Read-outs that look alike come from different tables or passages of the source.
# What was measured:
# Experiment in all cases: Microculture tetrazolium assay
# Assay type in all cases: cell-based
# SKOV3 = system: SKOV3
# T47D = system: T47D
# SKVLB = conditions: for VLB/OV3: IC50 ratio SKVLB/SKOV3; for IC50: SKVLB
# LOX = system: LOX
# HT29 = system: HT29
# [1] = Homo sapiens, SK-OV-3, SKOV3, read-out: IC50
# [2] = Homo sapiens, HT-29, HT29, read-out: IC50
IC50 (SKOV3; [1]) [µM],"IC50 (T47D; Homo sapiens, read-out: IC50) [µM]",IC50 (SKVLB; read-out: IC50) [µM],IC50 (LOX; read-out: IC50) [µM],IC50 (HT29; [2]) [µM],"IC50 (SKVLB; listed as BCH1157, read-out: IC50) [µM]",Compound,VLB/OV3 (SKVLB),"IC50 (SKOV3; Homo sapiens, SK-OV-3, SKOV3) [µM]",IC50 (T47D; Homo sapiens) [µM],IC50 (SKVLB) [µM],IC50 (LOX) [µM],"IC50 (HT29; Homo sapiens, HT-29, HT29) [µM]","IC50 (SKOV3; SKOV3, read-out: IC50) [µM]",IC50 (T47D; read-out: IC50) [µM],"IC50 (HT29; HT29, read-out: IC50) [µM]",VLB/OV3 (SKVLB; listed as BCH1157)
24.4,31.4,50.8,30.5,12.5,,"CC(=O)O[C@@H]1[C@H](C)O[C@@H](O[C@@H]2O[C@@H](C(C)=O)CC3=C2C(=O)c2cc4ccccc4c(O)c2C3=O)C[C@@H]1OC(C)=O [BCH-1166, (1'S,1S,3R)-methyl-(6-hydroxy-1-(2',3',4',6'-tetradeoxy-3',4'-diacetyl-L-lyxohexopyranose)-5,12-dioxo-3,4,5,12-tetrahydroanthraceno-[2,3-c]pyran-3-yl) ketone]",2.08,,,,,,,,,
5.1,34,45,16,61,,CC(=O)[C@H]1Cc2c(O)c3c(c(O)c2[C@H](O[C@H]2C[C@H](O)[C@H](O)[C@H](C)O2)O1)C(=O)c1ccccc1C3=O [BCH-1625],8.8,,,,,,,,,
3.7,6.21,12.1,5.4,3.38,,C=COC(=O)NCCCO[C@@H]1O[C@@H](C(C)=O)CC2=C1C(=O)c1cc3ccccc3c(O)c1C2=O (relative stereo) [BCH-2036],3.27,,,,,,,,,
,,,,,,"CC(=O)[C@@H]1CC2=C(C(=O)c3cc4ccccc4c(O)c3C2=O)[C@@H](O[C@H]2O[C@H](CO)[C@@H](O)[C@H](O)[C@H]2NC(=O)N(CCCl)N=O)O1 [BCH-2073, (1'R, 1R,3S)-3-Aceto-6-hydroxy-1-(2-deoxy-2-chloroethylnitrosoureido-D-glucopyranose)-5,12-dioxo-3,4,5,12-tetrahydro-1H-anthra[2,3-C]pyran]",2.67,5.14,6.12,13.7,0.807,6.59,,,,
8.94,14.2,28.4,3.74,8.55,,C[C@@H]1O[C@@H](O[C@@H]2O[C@@H](C3(CO)OCCCO3)CC3=C2C(=O)c2cc4ccccc4c(O)c2C3=O)C[C@H](N)[C@@H]1O [BCH-1154],3.18,,,,,,,,,
,,,,,,"CC[C@@H]1CC2=C(C(=O)c3cc4ccccc4c(O)c3C2=O)[C@@H](O[C@H]2C[C@H](N)[C@H](O)[C@H](C)O2)O1 [BCH-1614, (1'S,1R,3R)-5,12-dioxo-3-ethyl-6-hydroxy-1-(2',3',6'-trideoxy-3'-amino-4'-hydroxy-L-lyxohexopyranose)-3,4,5,12-tetrahydroanthraceno[2,3-c]pyran hydrochloride]",1.64,1.02,0.742,1.67,1.09,3.58,,,,
64.6,100,100,100,68.9,,CC1(C2Cc3c(O)c4c(c(O)c3CO2)C(=O)c2ccccc2C4=O)OCCO1 (stereo not drawn) [BCH-1114],,,,,,,,,,
,,,,,,CC(=O)[C@H]1CC2=C(C(=O)c3cc4ccccc4c(O)c3C2=O)[C@H](O[C@H]2O[C@H](CO)[C@@H](O)[C@H](O)[C@H]2NC(=O)N(CCCl)N=O)O1 [BCH-2039],6.01,13.5,12.6,81.2,1.55,4.43,,,,
0.865,0.727,5.82,0.398,1.12,,"COCC1(COC)CC2=C(C(=O)c3cc4ccccc4c(O)c3C2=O)[C@H](O[C@H]2C[C@H](NC(=O)C(F)(F)F)[C@H](O)[C@H](C)O2)O1 [BCH-1698, (1'S,1S)-5,12-dioxo-6-hydroxy-3,3-bismethoxymethyl-1-(2',3',6'-trideoxy-3'-trifluoroacetamido-L-lyxohexopyranose)-3,4,5,12-tetrahydroanthraceno-[2,3-C]pyran]",6.73,,,,,,,,,
,,,,,,CO[C@H]1O[C@H](C(=O)CP(=O)(OC)OC)CC2=C1C(=O)c1cc3ccccc3c(O)c1C2=O (relative stereo) [BCH-1650],1.12,0.802,2.44,0.895,0.755,0.629,,,,
3.46,4.57,3.99,1.93,2.49,,CO[C@H]1S[C@H](CO)CC2=C1C(=O)c1cc3ccccc3c(O)c1C2=O (relative stereo) [BCH-725],1.15,,,,,,,,,
86.6,59.7,89.9,38.1,79.6,,"C[C@@H]1O[C@@H](O[C@H]2O[C@H](C(C)(F)F)CC3=C2C(=O)c2cc4ccccc4c(O)c2C3=O)C[C@H](O)[C@@H]1O (mixture of isomers) [BCH-1662, (1'S,1S,3S) and (1'S,1R, 3R)-5,12-dioxo-3-(1,1-difluoroethyl)-6-hydroxy-1-(2',6'-dideoxy-L-lyxohexopyranose)-3,4,5,12-tetrahydroanthraceno-[2,3-c]-pyran]",1.04,,,,,,,,,
1.89,2.16,7.32,4.3,2.81,,C=CC1CC2=C(C(=O)c3cc4ccccc4c(O)c3C2=O)C(O[C@H]2C[C@H](N)[C@H](O)[C@H](C)O2)O1 (stereo partly drawn) [BCH-1611],3.87,,,,,,,,,
14.7,37.6,,> 100,13,21,CC(=O)C1CC2=C(C(=O)c3cc4ccccc4c(O)c3C2=O)C(OC2CC(N=[N+]=[N-])C(I)C(C)O2)O1 (stereo not drawn) [BCH-1157],,,,,,,,,,1.43
0.573,0.174,1.09,0.201,0.024,,"CCCCC[C@H]1Cc2c(O)c3c(c(O)c2[C@H](O[C@H]2C[C@H](N)[C@H](O)[C@H](C)O2)O1)C(=O)c1ccccc1C3=O [BCH-2088, (1'S,1S,3S)-5,12-mihydroxy-3-pentyl-1-(2',3',6'-trideoxy-3'-amino-L-lyxohexopyranose)-1,2,3,4-tetrahydro-(2-oxygen)-naphtacene-6,11-dione-hydrochloride]",1.90,,,,,,,,,

Compound,IC50 (SKOV3; [1]) [µM],"IC50 (T47D; Homo sapiens, read-out: IC50) [µM]",IC50 (SKVLB; read-out: IC50) [µM],IC50 (LOX; read-out: IC50) [µM],IC50 (HT29; [2]) [µM],"IC50 (SKVLB; listed as BCH1157, read-out: IC50) [µM]",VLB/OV3 (SKVLB),"IC50 (SKOV3; Homo sapiens, SK-OV-3, SKOV3) [µM]",IC50 (T47D; Homo sapiens) [µM],IC50 (SKVLB) [µM],IC50 (LOX) [µM],"IC50 (HT29; Homo sapiens, HT-29, HT29) [µM]","IC50 (SKOV3; SKOV3, read-out: IC50) [µM]",IC50 (T47D; read-out: IC50) [µM],"IC50 (HT29; HT29, read-out: IC50) [µM]",VLB/OV3 (SKVLB; listed as BCH1157)
"C=CC1CC2=C(C(=O)c3cc4ccccc4c(OC(C)=O)c3C2=O)C(OC)O1 (stereo not drawn) [BCH-716, 6-acetoxy-1-methoxy-1,2,3,4-tetrahydro-3-vinyl-(2-oxygen)naphthacene-5,12-dione]",> 100,70.3,85.5,41.6,> 100,,,,,,,,,,,
"CCOC(=O)C1CC2=C(CO1)C(=O)c1cc3ccccc3c(OC(C)=O)c1C2=O (stereo not drawn) [BCH-659, Ethyl(6-acetoxy-5,12-dioxo-3,4,5,12-tetrahydroanthraceno[2,3-c]pyran-3-yl)formate]",4.53,3.83,2.54,4.82,2.36,,0.56,,,,,,,,,
C[C@@H]1O[C@@H](O[C@H]2O[C@H](S(=O)(=O)c3ccccc3)CC3=C2C(=O)c2cc4ccccc4c(O)c2C3=O)C[C@H](NC(=O)C(F)(F)F)[C@@H]1O [BCH-2025],,3.34,6.2,1.11,0.644,,3.15,1.97,,,,,,,,
"COCOCC(=O)C1CC2=C(CO1)C(=O)c1cc3ccccc3c(O)c1C2=O (stereo not drawn) [BCH-697, 3-(2-methoxymethoxy)aceto-6-hydroxy-1,2,3,4-tetrahydro-(2-oxygen)napthacene-5,12-dione]",15.5,13,,12.6,6.04,,0.68,,,10.6,,,,,,
"C[C@@H]1O[C@@H](O[C@@H]2O[C@@H](C(=O)COC(=O)C(C)(C)C)CC3=C2C(=O)c2cc4ccccc4c(O)c2C3=O)C[C@H](NC(=O)C(F)(F)F)[C@@H]1O [BCH-1137, (1'S,1S,3R)-1,2,3,4,5,12-hexahydro-6-hydroxy-3-trimethylacetoxyaceto-1-N-trifluoroacetyl-L-daunosamine-(2-oxo) naphthacene-5,12-dione]",13.7,8.4,14.1,8.88,6.37,,1.03,,,,,,,,,
"(1'S,1R,3R) and (1'S,1S,3S)-5,12-dioxo-3-ethyl-6-hydroxy-1-(2',3',6'-trideoxy-3'-trifluoroacetamido-4'-O-p-nitrobenzoyl-L-lyxohexopyranose)-3,4,5,12-tetrahydroanthraceno[2,3-C]pyran [BCH-1199]",,,> 100,> 100,,,,,,,,,32.3,46.2,> 100,
"COCOCC(=O)C1CC2=C(CO1)C(=O)c1c(c(OC(C)=O)c3ccccc3c1OC(C)=O)C2=O (stereo not drawn) [BCH-695, 6,11-diacetoxy-3-(2-methoxymethoxy)aceto-1,2,3,4-tetrahydro-(2-oxygen)naphthacene-5,12-dione]",30.8,25.2,15,21.5,11.4,,0.49,,,,,,,,,
CC[C@H]1CC2=C(C(=O)c3cc4ccccc4c(O)c3C2=O)[C@H](O[C@H]2C[C@H](O)[C@H](O)[C@H](C)O2)O1 [BCH-1629],6.7,9,,7.4,22,,2.8,,,19,,,,,,
CC(=O)C1CC2=C(C(=O)c3cc4ccccc4c(O)c3C2=O)C(OC[C@@H](O)CO)O1 (stereo partly drawn) [BCH-2034],2.95,7.87,,1.43,2.05,,2.54,,,7.49,,,,,,
